Assays:
Type in all cases: in vivo, mouse
Male mice (DBA-1 strain) = test: Collagen-induced arthritis (CIA); details: for hind paw thickness at the ankle level: i.p. 1 mg/kg daily for 10 days (T0 to T10); for RNA transcripts of the pro-inflammatory genes expressed in the hind paws (IL-1β, IL-6, IL-17a, IL-17f, TNFα): q-RT-PCR, T10, 'but not' = not repressed; for hind paw thickness, difference compared to the Dex treatment: student t test, FIG. 17 legend
Experimental: Mice were treated with collagen to induce a Th17 rheumatoid arthritis-like inflammation as described by Inglis et al. (2007. Arthritis Res Ther. 9(5):R113) and Geboes et al. (2009. Arthritis Rheum. 60(2):390-5).
Male mice (DBA-1 strain) were subcutaneously-injected with 100 μg collagen per mouse on D0. The hind paw thickness at the ankle level was regularly measured with a caliper. When the ankle thickness had reached around 4 mm (T0, i.e., 30 to 50 days after the collagen injection on D0), mice were daily intraperitoneally-injected for 10 days (T0 to T10) with either vehicle (NaCl 0.9%), Dex, CpdX, CpdX(eA), CpdX(eB), CpdX-D3, CpdX-D3(eA) or CpdX-D3(eB) (1 mg/kg body weight diluted in NaCl 0.9%), and the hind paw thickness at the ankle level was daily measured with a caliper. Pictures of the hind paws were taken at days T0 and T10 (before and after the treatment with either Vehicle, Dex, CpdX, CpdX(eA), CpdX(eB), CpdX-D3, CpdX-D3(eA) or CpdX-D3(eB)), in order to assess the course of swelling.
RNA transcripts were extracted from whole hind paws of collagen-untreated and collagen-treated mice at T0 and T10. IL-1β, IL-6, IL-17a, IL-17f and TNFα transcripts were analyzed by q-RT-PCR.

Balb/C mice [1] = test: Dextran sodium sulfate (DSS)-induced ulcerative colitis; details: for pro-inflammatory genes overexpressed in DSS-induced ulcerative colitis (IL-1β, IL-6, IL-17a, IL-17f, TSLP, MMP13): colon, q-RT-PCR, D14; for colonic villus/crypt structure / mucosal and submucosal cell infiltration: i.p. 1 mg/kg on D11, D12, D13, H&E histology
Experimental: To investigate the anti-inflammatory activity of CpdX and CpdX-D3 on a Th17 ulcerative colitis, Balb/C mice were treated with 3% DSS in drinking water for 13 days, with or without an intraperitoneal administration of either Dex, CpdX, CpdX(eA), CpdX(eB), CpdX-D3, CpdX-D3(eA) or CpdX-D3(eB) (1 mg/kg of body weight) on D11, D12 and D13.
At D14, RNA transcripts were extracted from mouse colons. IL-1β, IL-6, IL-17a, IL-17f, TSLP and MMP13 transcripts were analyzed by q-RT-PCR. Colon samples were also harvested for histological analyses (with H&E staining).

Balb/C mice [2] = test: Skin atrophy after 8-day topical treatment of dorsal skin; details: for epidermal thickness / skin atrophy, histological analysis: eight-day topical treatment; for epidermal thickness: morphometric analysis; for skin atrophy, histological analysis: 'in marked contrast' = no severe atrophy as with Dex; for transcription of the REDD1 gene in dorsal skin: topical 8 days, 1 nmole/cm^2, 'but not' = not increased
Source text: To investigate whether, similarly to Dex, a topical administration of CpdX could result in a skin atrophy, Balb/C mice were shaved on the dorsal skin. Ethanol (vehicle), Dex, CpdX or either one of its two enantiomers CpdX(eA) or CpdX(eB), as well as the deuterated form CpdX-D3 or either one of its two enantiomers CpdX-D3(eA) or CpdX-D3(eB), were topically applied onto the dorsal skin for 8 days.
Upon completion of the treatments, RNA transcripts were extracted from dorsal skin samples and the transcripts of Kindlin-1 and REDD1 genes were analyzed by q-RT-PCR. Histological and morphometric analyses of the dorsal skin were also performed.

B6 male mice [3] = test: Organ weights (thymus, spleen, adrenal gland, kidney) after three-month treatment; details: s.c. 1 mg/kg daily, three months
Experimental: B6 male mice (8-week-old) were daily subjected for three months to a subcutaneous injection of either vehicle (NaCl 0.9%), Dex, CpdX, CpdX(eA), CpdX(eB), CpdX-D3, CpdX-D3(eA) or CpdX-D3(eB) (1 mg/kg body weight, diluted in vehicle). Following these treatments, four organs (thymus, spleen, adrenal gland and kidney) were harvested and weighted.

B6 male mice [4] = test: Corticosterone synthesis and adrenal gland after three-month treatment; details: for plasmatic corticosterone level: at 10 a.m., compared to control mice (Vehicle); for cortex layers, most notably the fasciculata zone, of the adrenal glands / glomerulosa zone of the adrenal cortex / transcripts of Cyp11a, Cyp11b1 and HSD3β genes in adrenal glands: three months; for cortex layers, most notably the fasciculata zone, of the adrenal glands / glomerulosa zone of the adrenal cortex: histology; for glomerulosa zone of the adrenal cortex: 'but not' = not decreased; for transcripts of Cyp11a, Cyp11b1 and HSD3β genes in adrenal glands: q-RT-PCR
Experimental: B6 male mice (8-week-old) were daily subjected for three months to either a subcutaneous injection of vehicle (NaCl 0.9%), Dex, CpdX, CpdX(eA), CpdX(eB), CpdX-D3, CpdX-D3(eA) or CpdX-D3(eB) (1 mg/kg body weight, diluted in vehicle).
Following this long-term treatment, blood was collected at 10 a.m. and 6 p.m. by retro-orbital puncture in lithium-heparin coated vials, and the plasmatic level of corticosterone was determined. Adrenal glands were harvested and weighted. RNA transcripts were extracted and transcripts of the Cyp11a, Cyp11b1, Cyp11b2 and HSD3β genes were analyzed by q-RT-PCR. Histological analyses of the adrenal glands were also carried out.

B6 male mice [5] = test: Insulin level, insulin tolerance test and liver insulin signalling after three-month treatment; details: for insulin resistance: three months, conclusion; for phosphorylated insulin receptor substrate 1 (p-IRS1 S318) in liver extracts: western-blot, 'but not' = no decrease
Experimental: B6 male mice (8-week-old) were subjected daily for three months to a subcutaneous injection of either vehicle (NaCl 0.9%), Dex, CpdX, CpdX(eA), CpdX(eB), CpdX-D3, CpdX-D3(eA) or CpdX-D3(eB) (1 mg/kg body weight, diluted in vehicle). After three months, the blood was collected at 10 a.m. by retro-orbital puncture in lithium-heparin coated vials, and the plasmatic level of insulin was determined.
For the intraperitoneal insulin tolerance test (IPITT), mice were fasted for 6 hours before test. The blood glucose concentration was measured both before (T0) and during a one-hour period after insulin i.p. injection (0.75 U/kg body weight).
Following this three-month treatment, liver samples were harvested and lysed in the RIPA buffer (20 mM Tris pH 8, 150 mM NaCl, 10% glycerol, 1% NP-40 and 2 mM EDTA). Antibodies from Cell Signaling were used to assess by Western-Blotting the relative level of p-IRS1 (S318), IRS-1, p-AKT (S473) and AKT.

B6 male mice [6] = test: Fatty liver after three-month treatment; details: three months; for lipid deposition in the liver: 5% Red oil staining of frozen sections; for transcripts of fatty acid synthase (FASN) and Stearoyl-CoA desaturase 1 (SCD1) in liver: q-RT-PCR, 'but not' = no increase; for blood cholesterol and bile acids' levels: 'but not' = no clear increase
Experimental: B6 male mice (8-week-old) were daily subjected for three months to a subcutaneous injection of either vehicle (NaCl 0.9%), Dex, CpdX, CpdX(eA), CpdX(eB), CpdX-D3, CpdX-D3(eA) or CpdX-D3(eB) (1 mg/kg body weight, diluted in vehicle). Following this treatment, blood was collected at 10 a.m. by retro-orbital puncture in lithium-heparin coated vials. The plasmatic levels of total cholesterol and bile acids were determined.
Liver samples were harvested. […] RNA transcripts were extracted from liver samples and the transcripts of fatty acid synthase (FASN) and Stearoyl-CoA desaturase 1 (SCD1) genes were analyzed by q-RT-PCR.

| epidermal thickness (Balb/C mice [2]) | skin atrophy, histological analysis (Balb/C mice [2]) | transcription of the REDD1 gene in dorsal skin (Balb/C mice [2]) | spleen weight (B6 male mice [3]) | weight of the adrenal gland (B6 male mice [3]) | plasmatic corticosterone level (B6 male mice [4]) | cortex layers, most notably the fasciculata zone, of the adrenal glands (B6 male mice [4]) | glomerulosa zone of the adrenal cortex (B6 male mice [4]) | transcripts of Cyp11a, Cyp11b1 and HSD3β genes in adrenal glands (B6 male mice [4]) | transcripts of fatty acid synthase (FASN) and Stearoyl-CoA desaturase 1 (SCD1) in liver (B6 male mice [6]) | blood cholesterol and bile acids' levels (B6 male mice [6]) | Structure (SMILES) | hind paw thickness at the ankle level (Male mice (DBA-1 strain)) | RNA transcripts of the pro-inflammatory genes expressed in the hind paws (IL-1β, IL-6, IL-17a, IL-17f, TNFα) (Male mice (DBA-1 strain)) | hind paw thickness, difference compared to the Dex treatment (Male mice (DBA-1 strain)) | pro-inflammatory genes overexpressed in DSS-induced ulcerative colitis (IL-1β, IL-6, IL-17a, IL-17f, TSLP, MMP13) (Balb/C mice [1]) | colonic villus/crypt structure (Balb/C mice [1]) | mucosal and submucosal cell infiltration (Balb/C mice [1]) | thymus apoptosis / thymus found (B6 male mice [3]) | insulin resistance (B6 male mice [5]) | phosphorylated insulin receptor substrate 1 (p-IRS1 S318) in liver extracts (B6 male mice [5]) | also measured |
| --- | --- | --- | --- | --- | --- | --- | --- | --- | --- | --- | --- | --- | --- | --- | --- | --- | --- | --- | --- | --- | --- |
| not significantly decreased | in marked contrast | but not | not decreased | increased | much higher | markedly increased | but not | increased | but not | but not | COc1ccc(F)cc1C(C)(C)CC(O)(CNc1ccc2c(c1)COC2=O)C(F)(F)F (racemic) [CpdX, 5-[4-(5-fluoro-2-methoxyphenyl)-2-hydroxy-4-methyl-2-(trifluoromethyl)pentylamino]-isobenzofuran-1(3H)-one] | rapid decrease | similarly repressed | not significant | similarly repressed | almost reestablished | significantly decreased | did not result in any significant thymus apoptosis | does not induce | but not | lipid deposition in the liver (B6 male mice [6]): not observed |
| not significantly decreased | in marked contrast | but not | not decreased | increased | much higher | markedly increased | but not | increased | but not | but not | [2H]C([2H])([2H])Oc1ccc(F)cc1C(C)(C)CC(O)(CNc1ccc2c(c1)COC2=O)C(F)(F)F (racemic) [CpdX-D3, 5-{4-[2-(methoxy-D3)-5-fluorophenyl]-2-hydroxy-4-methyl-2-(trifluoro-methyl)pentylamino}isobenzofuran-1(3H)-one] | rapid decrease | similarly repressed | not significant | similarly repressed | almost reestablished | significantly decreased | did not result in any significant thymus apoptosis | does not induce | but not | lipid deposition in the liver (B6 male mice [6]): not observed |
| not significantly decreased | – | but not | not decreased | increased | much higher | markedly increased | but not | increased | but not | but not | COc1ccc(F)cc1C(C)(C)CC(O)(CNc1ccc2c(c1)COC2=O)C(F)(F)F (single isomer, unassigned) [CpdX(eA), 5-[4-(5-fluoro-2-methoxyphenyl)-2-hydroxy-4-methyl-2-(trifluoromethyl)pentylamino]-isobenzofuran-1(3H)-one] | – | similarly repressed | – | similarly repressed | almost reestablished | significantly decreased | did not result in any significant thymus apoptosis | does not induce | – | – |
| not significantly decreased | – | but not | not decreased | increased | much higher | markedly increased | but not | increased | but not | but not | COc1ccc(F)cc1C(C)(C)CC(O)(CNc1ccc2c(c1)COC2=O)C(F)(F)F (single isomer, unassigned) [CpdX(eB), 5-[4-(5-fluoro-2-methoxyphenyl)-2-hydroxy-4-methyl-2-(trifluoromethyl)pentylamino]-isobenzofuran-1(3H)-one] | – | – | – | similarly repressed | almost reestablished | significantly decreased | did not result in any significant thymus apoptosis | does not induce | – | hind paw thickness at the ankle level (Male mice (DBA-1 strain); 1 mg/kg): no such decrease |

Source: patent publication US20190151283A1, “NON-STEROIDAL SELECTIVE GLUCOCORTICOID RECEPTOR AGONISTIC MODULATORS (SEGRAMs) AND USES THEREOF” (ASSOCIATION POUR LA RECHERCHE À L'IGBMC (ARI), priority 2017, published 2019)
